Test results: patent US9993462B2, “Hydantoin derivative-containing pharmaceutical composition” (Chugai Seiyaku Kabushiki Kaisha, priority 2014, dated 2018)

Assays:
[1] = test system: human articular chondrocytes; assay: Proteoglycan synthesis by human articular chondrocytes (35S-sulfate incorporation); format: cell-based; details: cultured for 13 days
Description: After purchase of cryopreserved human articular chondrocytes (Lot 2867, Cell Applications Inc.), the cells were thawed in a 37° C. water bath, 15 mL of Basal Medium supplemented with 10% Growth Supplement (Growth Medium, Cell Applications Inc.) was placed in a T75 culture flask (CORNING, Corning Japan K. K.) to culture the cells, and exchanged the next day with 15 mL of Growth Medium; and the cells were cultured for three days. Growth Medium was then removed, and HBSS (Cell Applications Inc.) was used to wash the chondrocyte layer. With addition of 1 mL of trypsin/EDTA solution (Cell Applications Inc.), this was left to stand at room temperature for approximately five minutes, and chondrocytes were detached from the flask. With 10 mL of Neutralization solution (Cell Applications Inc.) added, Bulker-Turk hemocytometer was used to determine the cell count, and the cells were then transferred to a 15-mL test tube for centrifugation (1,200 rpm for five minutes, Tomy Seiko Co., Ltd.) to produce a chondrocyte pellet. The supernatant was discarded, and the cells were placed in a 1.2% sodium alginate solution (25 mmol/L HEPES/150 mmol/L sodium chloride solution, pH7.0) at 2×10^6 cells/mL. This was drawn into a 1-mL syringe (Terumo Corporation) equipped with a 22G injection needle, five drops were added to each well of a 24-well plate (Corning Japan K.K.) containing 2 mL of 102 mmol/L aqueous CaCl2 solution, and this was left to stand for five minutes to form beads. Subsequently, this was washed three times with a 150 mmol/L sodium chloride solution and incubated for one day in Growth Medium, and the medium was exchanged with Basal Medium supplemented with 1% Growth supplement (Cell Applications Inc.). In this procedure, the following factors were added to the medium, and the cells were cultured for 13 days with three times of medium exchange performed per week.
On day 12 of culturing, ^35S-labeled sulfuric acid (PerkinElmer Japan Co., Ltd.) was added at 370 kBq/well, and the medium was collected 24 hours later into a test tube and stored at 4° C. To the alginate gel, a 55 mmol/L sodium citrate solution (Nacalai Tesque, Inc.; 1 mL/well) was added, and this was incubated at 37° C. for ten minutes for solation. This was collected into a microtube (Eppendorf AG) and then centrifuged (1,200 rpm, five minutes) to produce a chondrocyte pellet. […] The glass filter was transferred to a liquid scintillation counter vial, 5 mL of scintillator (Hionic-Fluor, PerkinElmer Japan Co., Ltd.) was added and radioactivity was measured on a liquid scintillation counter (TRI-CARB, PerkinElmer Japan Co., Ltd.).
The remaining 0.1 mL of the digested solution was used for DNA quantification. […]

[2] = test system: rat hepatocyte; assay: Metabolic stability using rat hepatocyte; format: in vitro ADME
Description: Liver cells were prepared from the liver of rats (SD, female) by a collagenase perfusion method. A compound of the Reference Examples or a Comparative Example was added, and this was incubated at 37° C. for a specified amount of time, followed by addition of a reaction-stopping solution. The concentration of the parent compound at each reaction time was measured using LC/MS/MS, and inherent clearance (μL/10^6 cells/min) was calculated from the slope of the reaction time versus residual rate.
• Cell concentration: 1×10^6 cells/mL • Compound concentration: 1 μM • Medium: Williams' medium E • Reaction time: 0, 15, 30, 60, 120, and 240 minutes • Reaction-stopping solution: acetonitrile/2-propanol (4/6, v/v)

[3] = test system: model rabbits with partially removed meniscus; assay: Model rabbits with partially removed meniscus (osteoarthritis model), lesion area of articular cartilage; format: in vivo, rabbit; details: continuous administration to the knee joint by osmotic pump, 3.0 or 30 μg/mL, 14 days after surgery
Source text: Twelve-week old male NZW rabbits (Oriental Yeast Co., Ltd.) were acclimated for five days, and then under isoflurane anesthesia, the lateral skin of the left knee joint was incised and the lateral collateral ligament and the sesamoid ligament were surgically removed to expose the lateral meniscus. The center of the lateral meniscus was excised at a width of 3 to 4 mm to produce an osteoarthritis model (Kikuchi T et al., Osteoarth Cart 1999; 4(2): 99-110). The tips of the three polyethylene tubes (PE60, Nippon Becton Dickinson Company) connected to three osmotic pumps (2ML1, Durect, Road Cupertino, Calif., US) that were embedded subcutaneously in the left femur were placed into the joint, and the drug solution was continuously administered to the knee joint. Each osmotic pump was filled with any of 1) vehicle control (50% dimethyl sulfoxide/50% physiological saline v/v); 2) Compound 7 at 3.0 μg/mL; or 3) Compound 7 at 30 μg/mL. […] Images of the surface structure of the lower leg bone were taken on a digital microscope (VHX-2000, Keyence Corporation), the area of the Indian ink-positive lesion site and the area of the entire lateral condyle were determined, and the proportion of the lesion site occupying the entire lateral condyle was calculated (FIG. 6).

rat hepatocyte metabolic stability compared to Comparative Examples 1, 2, 3, 5, and 6 (in words) [2]: increased
SMILES: Cc1cc(N2C(=O)NC(=O)C2(C)C)cc(C)c1CCS(=O)(=O)N1CCC2(CC1)N=C(c1ccc(OC(F)(F)F)cc1)NC2=O [Compound 7, 1-(3,5-dimethyl-4-(2-((4-oxo-2-(4-(trifluoromethoxy)phenyl)-1,3,8-triazaspiro[4.5]deca-1-en-8-yl)sulfonyl)ethyl)phenyl)-5,5-dimethylimidazolidine-2,4-dione]
radioactivity (proteoglycan synthesis, cpm/μg DNA) relative to the vehicle control ([1]; 10^−5 mol/L): 10 fold | radioactivity (proteoglycan synthesis, cpm/μg DNA) relative to the vehicle control ([1]; 10^−6 mol/L): 3 fold | area of the lesion site in the articular cartilage of the lower leg bone [3]: reduce the area of the lesion site in a dose-dependent manner
